The values below come from US20260022142A1, “MACROCYCLIC IMMUNOMODULATORS” (Bristol-Myers Squibb Company, priority 2022, published 2026).

Molecules are shown by their SMILES. Bridge positions count the residues as written; N and C are the ends. Square brackets hold non-standard residues; d marks the D form. Peptide text beside a SMILES is read from it. * marks the point of attachment. ξ: configuration not given here. Bip = N[C@@H](Cc1ccc(-c2ccccc2)cc1)C(=O)O; Phe(3-Me) = Cc1cccc(C[C@H](N)C(=O)O)c1; hArg = N=C(N)NCCCC[C@H](N)C(=O)O; 4Pal = N[C@@H](Cc1ccncc1)C(=O)O; Cha = N[C@@H](CC1CCCCC1)C(=O)O; Cit = NC(=O)NCCC[C@H](N)C(=O)O; Thr(3ξ) = CC(O)[C@H](N)C(=O)O; Carboxymethyl = O=C(O)C*; Orn = NCCC[C@H](N)C(=O)O; Aun = NCCCCCCCCCCC(=O)O; Dab = NCC[C@H](N)C(=O)O; Dap = NC[C@H](N)C(=O)O; AEEA = NCCOCCOCC(=O)O

T1 sequence (Q15116 25-288): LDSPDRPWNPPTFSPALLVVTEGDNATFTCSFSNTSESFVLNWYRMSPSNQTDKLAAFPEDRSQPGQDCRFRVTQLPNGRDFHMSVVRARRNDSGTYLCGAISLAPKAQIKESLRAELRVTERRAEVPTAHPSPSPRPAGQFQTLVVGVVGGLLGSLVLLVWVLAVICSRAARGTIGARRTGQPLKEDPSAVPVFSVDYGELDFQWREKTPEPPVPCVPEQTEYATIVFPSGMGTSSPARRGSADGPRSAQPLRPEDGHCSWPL

This assay concerns the target T1, PD-1/PD-L1 interaction (PE-labeled human PD-L1-Ig binding to Jurkat cell line over-expressing human PD-1) (Homo sapiens, UniProt Q15116).
T1 construct: expressed in transfected cells; host or cells: Jurkat
Kind of assay: Jurkat-PD-1 Cell Binding High-Content Screening Assay (CBA). The format is cell-based. The conditions noted are these: Jurkat cell line over-expressing human PD-1; PE-labeled PD-L1-Ig 20 nM final; read-out: Jurkat hPD1-PDL1 IC50. Put shortly: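 First, compound is added to PD-1-expressing Jurkat cells in serum-containing DMEM and left 2 h at 37° C. Next, PE-conjugated PD-L1-Ig is introduced at 20 nM final concentration for 1 hour. Finally, cells are fixed in 4% paraformaldehyde with Hoechst 33342, washed and imaged.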
For `CC(C)C[C@H]1NC(=O)[C@H](CCCN)NC(=O)[C@H](C(C)C)NC(=O)[C@H](Cc2ccc(-c3ccccc3)cc2)NC(=O)[C@H](C(C)C)NC(=O)[C@H](Cc2c[nH]c3ccccc23)NC(=O)[C@H](CC(=O)O)NC(=O)[C@H](Cc2ccc(OCC(=O)O)cc2)NC(=O)[C@H](CCCNC(=N)N)NC(=O)CSC[C@@H](C(=O)N[C@@H](CCN)C(=O)NCCCCCCCCCCC(=O)O)NC(=O)[C@H](CCCN)NC(=O)[C@H](C(C)C)NC(=O)[C@H](CC2CCCCC2)NC(=O)[C@H](CCN)NC1=O` [Compound 3289] ({CH2CO}-RY(Carboxymethyl)DWV[Bip]V[Orn][dL][Dab][Cha]V[Orn]C[Dab][Aun]-OH; thioether N-14), the IC50 (as a rule, the concentration that gives 50% inhibition) worked out at 13 nM.

Regarding `CC(C)C[C@H]1NC(=O)[C@H](CCCN)NC(=O)[C@H](C(C)C)NC(=O)[C@H](Cc2ccc(-c3ccccc3)cc2)NC(=O)[C@H](C(C)C)NC(=O)[C@H](Cc2c[nH]c3ccccc23)NC(=O)[C@H](CC(=O)O)NC(=O)[C@H](Cc2c[nH]cn2)NC(=O)[C@H](CCCNC(=N)N)NC(=O)CSC[C@@H](C(=O)N[C@@H](CCN)C(=O)NCCCCCCCCCCC(=O)O)NC(=O)[C@H](CCCCN)NC(=O)[C@H](C(C)C)NC(=O)[C@H](CC2CCCCC2)NC(=O)[C@H](CCN)NC1=O` [Compound 3290] ({CH2CO}-RHDWV[Bip]V[Orn][dL][Dab][Cha]VKC[Dab][Aun]-OH; thioether N-14), the IC50 was 39.5 nM. On to `Cc1cccc(C[C@@H]2NC(=O)[C@H](CC(=O)O)NC(=O)[C@H](Cc3ccc(OCC(=O)O)cc3)NC(=O)[C@H](CCCNC(=N)N)NC(=O)CSC[C@@H](C(=O)N[C@@H](CCN)C(=O)NCCCCCCCCCCC(=O)O)NC(=O)[C@H](CCCNC(N)=O)NC(=O)[C@H](C(C)C)NC(=O)[C@H](CC3CCCCC3)NC(=O)[C@H](CCN)NC(=O)[C@@H](CC(C)C)NC(=O)[C@H](CCCN)NC(=O)[C@H](C(C)C)NC(=O)[C@H](Cc3ccc(-c4ccccc4)cc3)NC(=O)[C@H](C(C)C)NC2=O)c1` [Compound 3291] ({CH2CO}-RY(Carboxymethyl)D[Phe(3-Me)]V[Bip]V[Orn][dL][Dab][Cha]V[Cit]C[Dab][Aun]-OH; thioether N-14), for which the IC50 stood at 6.1 nM. As for `Cc1cccc(C[C@@H]2NC(=O)[C@H](CC(=O)O)NC(=O)[C@H](Cc3ccc(OCC(=O)O)cc3)NC(=O)[C@H](CCCNC(=N)N)NC(=O)CSC[C@@H](C(=O)N[C@@H](CCN)C(=O)NCCCCCCCCCCC(=O)O)NC(=O)[C@H](CCCN)NC(=O)[C@H](C(C)C)NC(=O)[C@H](CC3CCCCC3)NC(=O)[C@H](CCN)NC(=O)[C@@H](CC(C)C)NC(=O)[C@H](CCCN)NC(=O)[C@H](C(C)C)NC(=O)[C@H](Cc3ccc(-c4ccccc4)cc3)NC(=O)[C@H](C(C)C)NC2=O)c1` [Compound 3292] ({CH2CO}-RY(Carboxymethyl)D[Phe(3-Me)]V[Bip]V[Orn][dL][Dab][Cha]V[Orn]C[Dab][Aun]-OH; thioether N-14), the figure is 12 nM; as for `Cc1cccc(C[C@@H]2NC(=O)[C@H](CC(=O)O)NC(=O)[C@H](Cc3ccc(OCC(=O)O)cc3)NC(=O)[C@H](CCCNC(=N)N)NC(=O)CSC[C@@H](C(=O)NCCOCCOCC(=O)N[C@@H](CCN)C(=O)NCCCCCCCCCCC(=O)O)NC(=O)[C@H](CCCCN)NC(=O)[C@H](C(C)C)NC(=O)[C@H](CC3CCCCC3)NC(=O)[C@H](CN)NC(=O)[C@@H](CC(C)C)NC(=O)[C@H](CCCN)NC(=O)[C@H](C(C)C)NC(=O)[C@H](Cc3ccc(-c4ccccc4)cc3)NC(=O)[C@H](C(C)C)NC2=O)c1` [Compound 3293] ({CH2CO}-RY(Carboxymethyl)D[Phe(3-Me)]V[Bip]V[Orn][dL][Dap][Cha]VKC[AEEA][Dab][Aun]-OH; thioether N-14), 5 nM; as for `CC(C)C[C@H]1NC(=O)[C@H](CCCN)NC(=O)[C@H](C(C)C)NC(=O)[C@H](Cc2ccc(-c3ccccc3)cc2)NC(=O)[C@H](C(C)C)NC(=O)[C@H](Cc2c[nH]c3ccccc23)NC(=O)[C@H](CC(=O)O)NC(=O)[C@H](Cc2ccc(OCC(=O)O)cc2)NC(=O)[C@H](Cc2ccncc2)NC(=O)CSC[C@@H](C(=O)N[C@@H](CCN)C(=O)NCCCCCCCCCCC(=O)O)NC(=O)[C@H](CN)NC(=O)[C@H](C(C)C)NC(=O)[C@H](CC2CCCCC2)NC(=O)[C@H](CCN)NC1=O` [Compound 3294] ({CH2CO}-[4Pal]Y(Carboxymethyl)DWV[Bip]V[Orn][dL][Dab][Cha]V[Dap]C[Dab][Aun]-OH; thioether N-14), 15.5 nM.

On to `Cc1cccc(C[C@@H]2NC(=O)[C@H](CC(=O)O)NC(=O)[C@H](Cc3c[nH]cn3)NC(=O)[C@H](CCCNC(=N)N)NC(=O)CSC[C@@H](C(=O)NCCOCCOCC(=O)N[C@@H](CCN)C(=O)NCCCCCCCCCCC(=O)O)NC(=O)[C@H](CO)NC(=O)[C@H](C(C)C)NC(=O)[C@H](CC3CCCCC3)NC(=O)[C@H](CCN)NC(=O)[C@@H](CC(C)C)NC(=O)[C@H](CCCN)NC(=O)[C@H](C(C)C)NC(=O)[C@H](Cc3ccc(-c4ccccc4)cc3)NC(=O)[C@H](C(C)C)NC2=O)c1` [Compound 3295] ({CH2CO}-RHD[Phe(3-Me)]V[Bip]V[Orn][dL][Dab][Cha]VSC[AEEA][Dab][Aun]-OH; thioether N-14), for which the IC50 amounted to 12.5 nM. As to `Cc1cccc(C[C@@H]2NC(=O)[C@H](CC(=O)O)NC(=O)[C@H](Cc3c[nH]cn3)NC(=O)[C@H](CCCNC(=N)N)NC(=O)CSC[C@@H](C(=O)N[C@@H](CCCCN)C(=O)NCCCCCCCCCCC(=O)O)NC(=O)[C@H](CCCN)NC(=O)[C@H](C(C)C)NC(=O)[C@H](CC3CCCCC3)NC(=O)[C@H](CCN)NC(=O)[C@@H](CC(C)C)NC(=O)[C@H](CCCN)NC(=O)[C@H](C(C)C)NC(=O)[C@H](Cc3ccc(-c4ccccc4)cc3)NC(=O)[C@H](C(C)C)NC2=O)c1` [Compound 3296] ({CH2CO}-RHD[Phe(3-Me)]V[Bip]V[Orn][dL][Dab][Cha]V[Orn]CK[Aun]-OH; thioether N-14), the IC50 was 20.3 nM. Take `Cc1cccc(C[C@@H]2NC(=O)[C@H](CC(=O)O)NC(=O)[C@H](Cc3ccc(OCC(=O)O)cc3)NC(=O)[C@H](CCCNC(=N)N)NC(=O)CSC[C@@H](C(=O)N[C@@H](CCN)C(=O)NCCCCCCCCCCC(=O)O)NC(=O)[C@H](C(C)O)NC(=O)[C@H](C(C)C)NC(=O)[C@H](CC3CCCCC3)NC(=O)[C@H](CCN)NC(=O)[C@@H](CC(C)C)NC(=O)[C@H](CCCN)NC(=O)[C@H](CCCNC(N)=O)NC(=O)[C@H](Cc3ccc(-c4ccccc4)cc3)NC(=O)[C@H](C(C)C)NC2=O)c1` (stereo partly drawn) [Compound 3301] ({CH2CO}-RY(Carboxymethyl)D[Phe(3-Me)]V[Bip][Cit][Orn][dL][Dab][Cha]V[Thr(3ξ)]C[Dab][Aun]-OH; thioether N-14): the IC50 came out at 17.4 nM.

With `Cc1cccc(C[C@@H]2NC(=O)[C@H](CC(=O)O)NC(=O)[C@H](Cc3ccc(OCC(=O)O)cc3)NC(=O)[C@H](CCCCNC(=N)N)NC(=O)CSC[C@@H](C(=O)N[C@@H](CCN)C(=O)NCCCCCCCCCCC(=O)O)NC(=O)[C@H](C(C)O)NC(=O)[C@H](C(C)C)NC(=O)[C@H](CC3CCCCC3)NC(=O)[C@H](CCN)NC(=O)[C@@H](CC(C)C)NC(=O)[C@H](CCCN)NC(=O)[C@H](CCCNC(N)=O)NC(=O)[C@H](Cc3ccc(-c4ccccc4)cc3)NC(=O)[C@H](C(C)C)NC2=O)c1` (stereo partly drawn) [Compound 3302] ({CH2CO}-[hArg]Y(Carboxymethyl)D[Phe(3-Me)]V[Bip][Cit][Orn][dL][Dab][Cha]V[Thr(3ξ)]C[Dab][Aun]-OH; thioether N-14), the IC50 was 14.1 nM. As to `Cc1cccc(C[C@@H]2NC(=O)[C@H](CC(=O)O)NC(=O)[C@H](Cc3ccc(OCC(=O)O)cc3)NC(=O)[C@H](CCCNC(=N)N)NC(=O)CSC[C@@H](C(=O)N[C@@H](CCN)C(=O)NCCCCCCCCCCC(=O)O)NC(=O)[C@H](C(C)O)NC(=O)[C@H](C(C)C)NC(=O)[C@H](CC3CCCCC3)NC(=O)[C@H](CCN)NC(=O)[C@@H](CC(C)C)NC(=O)[C@H](CCCN)NC(=O)[C@H](CCCN)NC(=O)[C@H](Cc3ccc(-c4ccccc4)cc3)NC(=O)[C@H](C(C)C)NC2=O)c1` (stereo partly drawn) [Compound 3303] ({CH2CO}-RY(Carboxymethyl)D[Phe(3-Me)]V[Bip][Orn][Orn][dL][Dab][Cha]V[Thr(3ξ)]C[Dab][Aun]-OH; thioether N-14), the IC50 was 15.1 nM. The result for `Cc1cccc(C[C@@H]2NC(=O)[C@H](CC(=O)O)NC(=O)[C@H](Cc3ccc(OCC(=O)O)cc3)NC(=O)[C@H](CCCNC(=N)N)NC(=O)CSC[C@@H](C(=O)N[C@@H](CCN)C(=O)NCCCCCCCCCCC(=O)O)NC(=O)[C@H](C(C)O)NC(=O)[C@H](C(C)C)NC(=O)[C@H](CC3CCCCC3)NC(=O)[C@H](CCN)NC(=O)[C@@H](CC(C)C)NC(=O)[C@H](CCCNC(N)=O)NC(=O)[C@H](CCCN)NC(=O)[C@H](Cc3ccc(-c4ccccc4)cc3)NC(=O)[C@H](C(C)C)NC2=O)c1` (stereo partly drawn) [Compound 3304] ({CH2CO}-RY(Carboxymethyl)D[Phe(3-Me)]V[Bip][Orn][Cit][dL][Dab][Cha]V[Thr(3ξ)]C[Dab][Aun]-OH; thioether N-14) reads 14.2 nM; that for `Cc1cccc(C[C@@H]2NC(=O)[C@H](CC(=O)O)NC(=O)[C@H](Cc3ccc(OCC(=O)O)cc3)NC(=O)[C@H](CCCNC(=N)N)NC(=O)CSC[C@@H](C(=O)N[C@@H](CCN)C(=O)NCCCCCCCCCCC(=O)O)NC(=O)[C@H](CCCNC(N)=O)NC(=O)[C@H](C(C)C)NC(=O)[C@H](CC3CCCCC3)NC(=O)[C@H](CCN)NC(=O)[C@@H](CC(C)C)NC(=O)[C@H](CCCN)NC(=O)[C@H](CCC(N)=O)NC(=O)[C@H](Cc3ccc(-c4ccccc4)cc3)NC(=O)[C@H](C(C)C)NC2=O)c1` [Compound 3305] ({CH2CO}-RY(Carboxymethyl)D[Phe(3-Me)]V[Bip]Q[Orn][dL][Dab][Cha]V[Cit]C[Dab][Aun]-OH; thioether N-14), 6.5 nM.
